Measured values from patent US5811391A, “Cyclic CS-1 peptidomimetics, compositions and methods of using same” (Cytel Corporation, priority 1995, dated 1998).
Positions of bridges follow the written chain, without caps; N, C: chain ends. Non-standard residues stand in square brackets, D forms with d. Residues, ends and D or L forms follow the SMILES beside them. *: point of attachment. Pen = CC(C)(S)[C@H](N)C(=O)O; PhAc = O=C(Cc1ccccc1)*

Molecular target: VLA-4 (Homo sapiens, UniProt P05556+P13612)
Assay: In vitro binding assay: 51Cr-labeled Jurkat cells to solid phase-bound CS-1 peptide (SEQ ID NO:5)
Format: cell-based
Parameters: inflammatory cells that contain the VLA-4 receptor [Jurkat cells; host or cells: Jurkat cells (human T lymphoblastic line)
Details: for Relative Potency: CS-1; for Potency in inhibiting Jurkat cell binding to CS-1 relative to standard 10-mer of SEQ ID NO:6: times/fold more potent than SEQ ID NO:6
Experimental: Binding inhibition is measured here as a concentration of peptide that inhibits one-half the binding between a standard number of Jurkat cells and a standard amount of CS-1 peptide bound to the surface of a microtiter plate well. Those concentrations are conveniently expressed as IC50 values, smaller numbers indicating a lower concentration required to inhibit 50 percent binding and therefore greater potency. Further specifics of this assay are provided hereinafter.
Jurkat cells (ATCC TIB 152), a human T lymphoblastic line, labeled with ^51 chromium were used to assay in vitro binding inhibition provided by various peptides discussed herein.
The plates were prepared as follows: The 25-mer CS-1 peptide (SEQ ID NO:5) dissolved at 0.5-1 μg/ml in a buffer of 0.1M NaHCO3 at pH 9.5 that also contained 10 μg/ml of bovine serum albumin (BSA) or a conjugate of the CS-1 peptide linked to ovalbumin (CS-1-OVA) dissolved at 1-2.5 μg/ml in the same buffer was used as the substrate. Each well of the microtiter plates was coated with 50 μl of substrate or buffer alone for controls. The wells were permitted to dry out completely and were then rinsed twice with PBS at pH 7.4. Non-specific binding sites of each well were then blocked using 200 μl per well of RPMI/1 percent BSA for two hours at room temperature. Both solid phase-affixed substrates provided similar results.
Jurkat cells (3-5×10^6 cells) were placed into a 15 ml FALCON™ round-bottom tube with a cap. The tube was centrifuged, and the extra medium was then removed.
Two hundred microliters of a ^51 Cr labeling solution were added to the centrifuged cells and maintained in contact with the cells for 90-120 minutes in a warm room. This procedure typically provides about 50,000-100,000 cpm/well with about 80-100 percent cell viability. Longer contact times provide a greater amount of labeling but lower cell viability.
The labeled cells were washed with (i) complete medium, (ii) 1mM EDTA/PBS and then (iii) RPM1/1 percent BSA free of serum components. The cells were centrifuged after each washing. The cells were finally resuspended in serum-free RPMI/1 percent BSA at a concentration of 1×10^6 viable cells/ml, which provides a concentration that is diluted by one-half in the assay.
Cyclic inhibitor peptides were prepared as stock solutions at 20 mg/ml in DMSO in 1.5 ml cryogenic screwcap vials, and were stored at -70° C. Using FLOW™ round-bottom or V-bottom microtiter plates, the inhibitor peptides were prepared at twice the assay concentration in RPMI/1 percent BSA at 60 μl/well.
Four initial dilutions were typically used.
The ^51 Cr-labeled cells (1×10^6 cells at 60 μl/well) were then admixed with the diluted cyclic peptide solutions. The admixtures were maintained at room temperature (about 22° C.) for 30 minutes.
One hundred microliters of each inhibitor peptide/cell admixture were transferred to the substrate-coated wells. This was done in triplicate for each dilution. The resulting plates were incubated for 30 minutes at 37° C. and then washed gently three times with RPMI/1 percent BSA at 200 μl/well. Binding was observed microscopically, particularly after the second wash.
The bound cells were then lysed by the addition of a 0.5 percent solution of sodium dodecylsulfate in water at 100 μl/well. The resulting solutions were then processed for counting and calculation of IC50 values following usual procedures. Appropriate positive and negative controls were used with each plate so that the results of separate assays could be normalized and compared.
The potency data of Table 1 and Table 2 are so normalized. The absolute IC50 value for the peptide of SEQ ID NO:7 is 0.3 μM.

[1] = Table 2, normalized IC50 potency relative to standard peptide SEQ ID NO:6, Jurkat cells
[2] = Table 1, normalized IC50 potency relative to standard peptide SEQ ID NO:6 (=1), Jurkat cells

Sequence of VLA-4 (P13612 34-1032): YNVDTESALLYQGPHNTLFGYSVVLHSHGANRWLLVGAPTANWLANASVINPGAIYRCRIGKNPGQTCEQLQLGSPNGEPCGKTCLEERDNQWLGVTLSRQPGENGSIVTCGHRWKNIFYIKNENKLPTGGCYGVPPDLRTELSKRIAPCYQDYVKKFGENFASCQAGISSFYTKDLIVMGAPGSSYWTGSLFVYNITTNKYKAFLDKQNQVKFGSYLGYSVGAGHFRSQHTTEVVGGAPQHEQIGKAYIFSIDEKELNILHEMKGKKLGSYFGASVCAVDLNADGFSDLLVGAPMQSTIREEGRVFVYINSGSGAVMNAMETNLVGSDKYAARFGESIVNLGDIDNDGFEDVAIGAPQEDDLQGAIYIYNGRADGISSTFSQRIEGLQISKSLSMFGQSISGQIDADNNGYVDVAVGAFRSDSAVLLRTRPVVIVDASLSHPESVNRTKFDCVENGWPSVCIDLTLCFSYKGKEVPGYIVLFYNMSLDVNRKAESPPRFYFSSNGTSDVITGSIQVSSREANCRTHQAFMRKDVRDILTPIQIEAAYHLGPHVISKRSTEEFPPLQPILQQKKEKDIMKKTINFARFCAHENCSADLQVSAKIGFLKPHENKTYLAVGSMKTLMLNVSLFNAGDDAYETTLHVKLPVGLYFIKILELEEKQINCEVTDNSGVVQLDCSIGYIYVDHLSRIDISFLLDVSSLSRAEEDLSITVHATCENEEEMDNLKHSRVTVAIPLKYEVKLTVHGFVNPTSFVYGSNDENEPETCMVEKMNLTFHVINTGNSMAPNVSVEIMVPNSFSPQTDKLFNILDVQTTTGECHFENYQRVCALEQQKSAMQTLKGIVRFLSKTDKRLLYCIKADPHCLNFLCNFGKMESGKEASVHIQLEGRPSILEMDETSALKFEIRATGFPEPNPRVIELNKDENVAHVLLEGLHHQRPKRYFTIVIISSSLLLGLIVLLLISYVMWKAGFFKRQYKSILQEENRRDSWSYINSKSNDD
Sequence of VLA-4 (P05556 21-798): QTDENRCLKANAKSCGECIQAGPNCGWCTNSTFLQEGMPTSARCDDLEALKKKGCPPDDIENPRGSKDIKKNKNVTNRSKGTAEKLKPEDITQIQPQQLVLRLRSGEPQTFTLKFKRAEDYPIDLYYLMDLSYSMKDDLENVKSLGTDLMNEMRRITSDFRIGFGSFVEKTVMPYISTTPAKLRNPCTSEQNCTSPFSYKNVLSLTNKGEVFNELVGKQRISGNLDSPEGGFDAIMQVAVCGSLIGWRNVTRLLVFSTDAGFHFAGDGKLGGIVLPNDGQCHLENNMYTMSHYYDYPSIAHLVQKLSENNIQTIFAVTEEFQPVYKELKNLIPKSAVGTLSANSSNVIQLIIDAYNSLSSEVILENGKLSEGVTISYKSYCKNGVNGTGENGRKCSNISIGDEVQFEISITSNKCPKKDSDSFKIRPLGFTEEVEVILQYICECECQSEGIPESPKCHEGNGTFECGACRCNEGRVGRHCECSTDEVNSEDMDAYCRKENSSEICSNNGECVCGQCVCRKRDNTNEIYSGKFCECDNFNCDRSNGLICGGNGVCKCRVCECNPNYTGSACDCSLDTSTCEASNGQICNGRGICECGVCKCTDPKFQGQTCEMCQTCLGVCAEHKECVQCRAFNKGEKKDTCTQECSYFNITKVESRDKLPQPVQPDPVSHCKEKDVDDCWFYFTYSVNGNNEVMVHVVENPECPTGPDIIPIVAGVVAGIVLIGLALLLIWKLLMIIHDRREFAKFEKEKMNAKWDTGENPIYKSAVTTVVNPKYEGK

| Compound | Relative Potency [2] | also measured |
| --- | --- | --- |
| CC(=O)N[C@H]1CSSC[C@@H](C(=O)N2CCC[C@@H]2C(N)=O)NC(=O)[C@H](CC(=O)O)NC(=O)[C@H](CC(C)C)NC1=O (Ac-CLDC[dP]-NH2; disulfide 1-4) |  | Relative Potency [1]: 0 |
| CC(C)C[C@@H]1NC(=O)[C@H](Cc2ccccc2)NC(=O)[C@H](CCC(=O)O)NC(=O)[C@@H]2CCCN2C(=O)CNC(=O)[C@@H](N)CSSC[C@@H](C(N)=O)NC(=O)[C@@H]2CCCN2C(=O)[C@H](Cc2ccccc2)NC(=O)[C@H](CC(=O)O)NC1=O (H-CGPEFLDFPC-NH2; disulfide 1-10) |  | Relative Potency [1]: 6.26 |
| NC(=O)[C@@H]1CSSC[C@H](NC(=O)[C@H](N)Cc2ccccc2)C(=O)N[C@@H](CC(=O)O)C(=O)N[C@@H](Cc2ccccc2)C(=O)N1 (H-[dF]CDFC-NH2; disulfide 2-5) |  | Relative Potency [1]: 3.13 |
| CC(=O)N[C@@H](CC(C)C)C(=O)N[C@@H](CC(=O)O)C(=O)N[C@@H](Cc1ccccc1)C(N)=O [AcLDF-NH2] (Ac-Leu-Asp-Phe-NH2) | < 1 |  |
| CC(=O)N[C@@H](CC(C)C)C(=O)N[C@@H](CC(=O)O)C(=O)N[C@H](C(N)=O)C(C)C [AcLDV-NH2, reference compound] (Ac-Leu-Asp-Val-NH2) | < 1 | Potency in inhibiting Jurkat cell binding to CS-1 relative to standard 10-mer of SEQ ID NO:6: about 1 |
| CC(C)C[C@H](N)C(=O)N[C@@H](CC(=O)O)C(=O)N[C@@H](Cc1ccccc1)C(N)=O [LDF-NH2] (H-Leu-Asp-Phe-NH2) | 0 |  |
| CC(C)C[C@H](N)C(=O)N[C@@H](CC(=O)O)C(=O)N[C@H](C(N)=O)C(C)C [LDV-NH2, reference compound] (H-Leu-Asp-Val-NH2) | 0 | Potency in inhibiting Jurkat cell binding to CS-1 relative to standard 10-mer of SEQ ID NO:6: zero |
| CC(C)C[C@@H]1NC(=O)[C@H](Cc2ccccc2)NC(=O)[C@H](CCC(=O)O)NC(=O)[C@@H]2CCCN2C(=O)[C@@H](N)CSSC[C@@H](C(N)=O)NC(=O)[C@@H]2CCCN2C(=O)[C@H](Cc2ccccc2)NC(=O)[C@H](CC(=O)O)NC1=O [SEQ ID NO:16, CPEFLDFPC-NH2] (H-CPEFLDFPC-NH2; disulfide 1-9) | 56 |  |
| CC(=O)N[C@@H](Cc1ccccc1)C(=O)N[C@@H](CS)C(=O)N[C@@H](CC(=O)O)C(=O)N[C@@H](Cc1ccccc1)C(=O)N[C@@H](CS)C(N)=O [SEQ ID NO:18, AcFCDFC-NH2] (Ac-FCDFC-NH2) | 41 |  |
| CC(C)C[C@@H]1NC(=O)[C@H](Cc2ccccc2)NC(=O)[C@H](CCC(=O)O)NC(=O)[C@@H]2CCCN2C(=O)[C@@H](N)CSSC[C@@H](C(N)=O)NC(=O)[C@H](CO)NC(=O)[C@@H]2CCCN2C(=O)[C@H](Cc2ccccc2)NC(=O)[C@H](CC(=O)O)NC1=O [SEQ ID NO:19, CPEFLDFPSC-NH2] (H-CPEFLDFPSC-NH2; disulfide 1-10) | 6 |  |
| CC(C)C[C@@H]1NC(=O)[C@H](Cc2ccccc2)NC(=O)[C@@H](N)CSSC[C@@H](C(N)=O)NC(=O)[C@H](C(C)C)NC(=O)[C@H]([C@@H](C)O)NC(=O)[C@H](CO)NC(=O)[C@@H]2CCCN2C(=O)[C@H](Cc2ccccc2)NC(=O)[C@H](CC(=O)O)NC1=O [SEQ ID NO:21, CFLDFPSTVC-NH2] (H-CFLDFPSTVC-NH2; disulfide 1-10) | 19 |  |
| CC(C)C[C@@H]1NC(=O)[C@H](Cc2ccccc2)NC(=O)[C@H](CCC(=O)O)NC(=O)[C@@H](N)CSSC[C@@H](C(N)=O)NC(=O)[C@H]([C@@H](C)O)NC(=O)[C@H](CO)NC(=O)[C@@H]2CCCN2C(=O)[C@H](Cc2ccccc2)NC(=O)[C@H](CC(=O)O)NC1=O [SEQ ID NO:22, CEFLDFPSTC-NH2] (H-CEFLDFPSTC-NH2; disulfide 1-10) | 9 |  |
| CC(C)C[C@@H]1NC(=O)[C@H](Cc2ccccc2)NC(=O)[C@H](CCC(=O)O)NC(=O)[C@@H]2CCCN2C(=O)CNC(=O)[C@@H](N)CSSC[C@@H](C(N)=O)NC(=O)[C@H](Cc2ccccc2)NC(=O)[C@H](CC(=O)O)NC1=O [SEQ ID NO:23, CGPEFLDFC-NH2] (H-CGPEFLDFC-NH2; disulfide 1-9) | 9 |  |
| CC(C)C[C@@H]1NC(=O)[C@H](Cc2ccccc2)NC(=O)[C@H](CCC(=O)O)NC(=O)[C@@H](N)CSSC[C@@H](C(N)=O)NC(=O)[C@H](CO)NC(=O)[C@@H]2CCCN2C(=O)[C@H](Cc2ccccc2)NC(=O)[C@H](CC(=O)O)NC1=O [SEQ ID NO:24, CEFLDFPSC-NH2] (H-CEFLDFPSC-NH2; disulfide 1-9) | 6 |  |

Now from value to compound, other results behind:

| Relative Potency [2] | Compound | also measured |
| --- | --- | --- |
| 4 | CC1(C)SSC[C@H](C(N)=O)NC(=O)[C@H](Cc2ccccc2)NC(=O)[C@H](CC(=O)O)NC(=O)[C@H]1NC(=O)Cc1ccccc1 [.phi.AcJDFc-NH2] (PhAc-[Pen]DF[dC]-NH2; disulfide 1-4) |  |
| 253 | CC(C)C[C@@H]1NC(=O)[C@H](Cc2ccccc2)NC(=O)[C@@H](N)CSSC[C@@H](C(N)=O)NC(=O)[C@@H]2CCCN2C(=O)[C@H](Cc2ccccc2)NC(=O)[C@H](CC(=O)O)NC1=O [SEQ ID NO:10, CFLDFPC-N2] (H-CFLDFPC-NH2; disulfide 1-7) | inhibition of binding to CS-1 (in words): excellent inhibitors; IC50 (Jurkat cells, solid phase-bound CS-1, read-out: absolute value of IC50): ~600 nM; Potency in inhibiting Jurkat cell binding to CS-1 relative to standard 10-mer of SEQ ID NO:6: about 253 |
| 134 | CC(=O)N[C@H]1CSSC[C@@H](C(N)=O)NC(=O)[C@@H]2CCCN2C(=O)[C@H](Cc2ccccc2)NC(=O)[C@H](CC(=O)O)NC(=O)[C@H](CC(C)C)NC(=O)[C@H](Cc2ccccc2)NC1=O [SEQ ID NO:11, AcCFLDFPC-NH2] (Ac-CFLDFPC-NH2; disulfide 1-7) |  |
| 131 | NC(=O)[C@@H]1CSSC[C@H](NC(=O)[C@@H](N)Cc2ccccc2)C(=O)N[C@@H](CC(=O)O)C(=O)N[C@@H](Cc2ccccc2)C(=O)N2CCC[C@H]2C(=O)N1 [SEQ ID NO:12, FCDFPC-NH2] (H-FCDFPC-NH2; disulfide 2-6) |  |
| 94 | CC1(C)SSC[C@@H](C(N)=O)NC(=O)[C@H](Cc2ccccc2)NC(=O)[C@H](CC(=O)O)NC(=O)[C@H]1NC(=O)Cc1ccccc1 [SEQ ID NO:14, .phi.AcJDFC-NH2] (PhAc-[Pen]DFC-NH2; disulfide 1-4) |  |
| 81 | CC(C)C[C@@H]1NC(=O)[C@H](Cc2ccccc2)NC(=O)[C@@H](N)CSSC[C@@H](C(N)=O)NC(=O)[C@H]([C@@H](C)O)NC(=O)[C@H](CO)NC(=O)[C@@H]2CCCN2C(=O)[C@H](Cc2ccccc2)NC(=O)[C@H](CC(=O)O)NC1=O [SEQ ID NO:15, CFLDFPSTC-NH2] (H-CFLDFPSTC-NH2; disulfide 1-9) |  |
| 52 | CC(=O)N[C@@H](Cc1ccccc1)C(=O)N[C@H]1CSSC[C@@H](C(N)=O)NC(=O)[C@H](Cc2ccccc2)NC(=O)[C@H](CC(=O)O)NC1=O [SEQ ID NO:17, AcFCDFC-NH2] (Ac-FCDFC-NH2; disulfide 2-5) |  |
| 19 | CC(C)C[C@@H]1NC(=O)[C@H](Cc2ccccc2)NC(=O)[C@H](CCC(=O)O)NC(=O)[C@@H](N)CSSC[C@@H](C(N)=O)NC(=O)[C@@H]2CCCN2C(=O)[C@H](Cc2ccccc2)NC(=O)[C@H](CC(=O)O)NC1=O [SEQ ID NO:20, CEFLDFPC-NH2] (H-CEFLDFPC-NH2; disulfide 1-8) |  |
| 3 | NC(=O)[C@@H]1CSSC[C@H](NC(=O)[C@@H](N)Cc2ccccc2)C(=O)N[C@@H](CC(=O)O)C(=O)N[C@@H](Cc2ccccc2)C(=O)N1 [SEQ ID NO:25, FCDFC-NH2] (H-FCDFC-NH2; disulfide 2-5) |  |
| 1 | CC(C)C[C@@H]1NC(=O)[C@@H](N)CSSC[C@@H](C(N)=O)NC(=O)[C@H](Cc2ccccc2)NC(=O)[C@H](CC(=O)O)NC1=O [SEQ ID NO:28, CLDFC -NH2] (H-CLDFC-NH2; disulfide 1-5) |  |
